Reference: ChEMBL document CHEMBL1127909, “Tyrosinase inhibitory flavonoids fromheterotheca inuloides and their structural functions” (Bioorg Med Chem Lett, 1994)
Values after ≈ are worked out from the molar mass of the structure shown.

What was measured:
[1] = target: T1, Tyrosinase (Homo sapiens) (UniProt P14679); assay: Percent inhibition of mushroom tyrosinase at concentration of 45 ug/ml
T1 sequence (whole entry): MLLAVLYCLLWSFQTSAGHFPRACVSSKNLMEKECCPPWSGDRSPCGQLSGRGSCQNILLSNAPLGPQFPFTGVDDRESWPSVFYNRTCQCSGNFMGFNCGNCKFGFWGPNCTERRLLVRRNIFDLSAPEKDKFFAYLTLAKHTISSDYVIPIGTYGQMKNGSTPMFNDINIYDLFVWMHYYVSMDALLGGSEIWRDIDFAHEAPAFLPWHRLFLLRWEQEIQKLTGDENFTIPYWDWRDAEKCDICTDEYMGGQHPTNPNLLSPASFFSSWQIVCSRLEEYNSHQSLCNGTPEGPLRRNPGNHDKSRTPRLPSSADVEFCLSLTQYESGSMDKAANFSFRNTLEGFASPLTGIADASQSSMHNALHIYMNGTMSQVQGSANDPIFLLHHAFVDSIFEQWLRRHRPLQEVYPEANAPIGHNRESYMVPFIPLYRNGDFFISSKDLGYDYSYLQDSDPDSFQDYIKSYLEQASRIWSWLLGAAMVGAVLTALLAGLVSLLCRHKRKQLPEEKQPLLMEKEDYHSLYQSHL

[2] = target: T1, Tyrosinase (Homo sapiens); assay: Percent inhibition of mushroom tyrosinase at concentration of 18 ug/ml
[3] = test system: Tyrosinase (Agaricus bisporus); assay: Dose required for inhibitory activity against oxidation of L-DOPA by mushroom tyrosinase

SMILES	inhibition [1]	inhibition [2]	ID50 [3]
O=c1c(O)c(-c2ccc(O)c(O)c2)oc2cc(O)cc(O)c12	80%	40%	
O=C(/C=C/c1ccc(O)cc1)OC[C@@H]1O[C@H](Oc2cc(O)c3c(=O)c(O)c(-c4ccc(O)cc4)oc3c2)[C@@H](O)[C@H](O)[C@H]1O			0.39 µg/mL (≈ 0.656 µM)
COc1cc(-c2oc3cc(O[C@H]4O[C@@H](COC(=O)/C=C/c5ccc(O)cc5)[C@H](O)[C@@H](O)[C@@H]4O)cc(O)c3c(=O)c2O)ccc1O			0.44 µg/mL (≈ 0.705 µM)
